Reference: patent US20150072416A1, “METABOLITE FOR IMPROVING PRODUCTION, MAINTENANCE AND PROLIFERATION OF PLURIPOTENT STEM CELLS, COMPOSITION COMPRISING THE SAME, AND METHOD OF CULTURING PLURIPOTENT STEM CELL USING THE SAME” (KOREA RESEARCH INSTITUTE OF BIOSCIENCE AND BIOTENOLOGY, priority 2012, published 2015)

Test system: human fibroblasts transfected with reprogramming factor OSKM
Assay: Measurement of reactive oxygen species during reprogramming
Assay type: cell-based
Conditions: 1 mM, day 19 of induction of reprogramming
Description: On day 19 of induction of reprogramming, the cells were dissociated into single cells by trypsin, and then stained with 5 μM of CM-H2DCFDA (2,7-dichlorodihydrofluresceindiacetat) at 37° C. for 30 minutes. Cells treated with 100 μM of hydrogen peroxide (H2O2) were used as a positive control group for the formation of reactive oxygen species, and the degree of fluorescence staining was measured by flow cytometry and quantified.

SMILES: NC(=O)c1cccnc1 [nicotinamide]
- formation of reactive oxygen species: inhibited
